# Experimental data as given in ChEMBL document CHEMBL4371002 (J Med Chem, 2018).
# Square brackets hold non-standard residues; d marks the D form. Peptide text beside a SMILES is read from it. * marks the point of attachment. Dip = N[C@H](C(=O)O)C(c1ccccc1)c1ccccc1; X2 = C[C@H](/C=C(\F)[C@H](C)N)C(=O)*; Abu(4,4-F2) = N[C@@H](CC(F)F)C(=O)O; PhLac = O=C(O)[C@@H](O)Cc1ccccc1; Cha = N[C@@H](CC1CCCCC1)C(=O)O; Abu = CC[C@H](N)C(=O)O
# How the values were obtained:
# [1] = target: Delta-type opioid receptor (Homo sapiens, UniProt P41143)
# [2] = physchem; settings: buffer, pH 7.4
# [3] = target: T1, 3-oxo-5-alpha-steroid 4-dehydrogenase 1 (Homo sapiens, UniProt P18405)
# T1 sequence (P18405 whole entry): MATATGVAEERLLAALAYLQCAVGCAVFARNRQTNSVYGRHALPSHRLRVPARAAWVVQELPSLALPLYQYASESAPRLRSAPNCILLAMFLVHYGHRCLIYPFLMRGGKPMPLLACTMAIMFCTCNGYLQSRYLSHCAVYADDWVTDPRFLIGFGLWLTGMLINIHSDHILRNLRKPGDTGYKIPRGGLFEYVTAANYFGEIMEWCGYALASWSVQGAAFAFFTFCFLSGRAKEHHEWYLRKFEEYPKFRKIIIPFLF
# [4] = target: T1, 3-oxo-5-alpha-steroid 4-dehydrogenase 1; remark: listed apart in the source
# [5] = target: T2, 3-oxo-5-alpha-steroid 4-dehydrogenase 1 (Rattus norvegicus, UniProt P24008)
# T2 sequence (P24008 whole entry): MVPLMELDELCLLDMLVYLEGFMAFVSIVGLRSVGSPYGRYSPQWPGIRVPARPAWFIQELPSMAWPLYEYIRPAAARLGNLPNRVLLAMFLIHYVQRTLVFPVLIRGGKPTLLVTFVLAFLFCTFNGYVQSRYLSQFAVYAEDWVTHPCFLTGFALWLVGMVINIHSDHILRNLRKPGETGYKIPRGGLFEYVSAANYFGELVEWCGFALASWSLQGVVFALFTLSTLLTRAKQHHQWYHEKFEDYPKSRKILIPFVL
# [6] = target: T3, 3-oxo-5-alpha-steroid 4-dehydrogenase 2 (Rattus norvegicus, UniProt P31214)
# T3 sequence (P31214 whole entry): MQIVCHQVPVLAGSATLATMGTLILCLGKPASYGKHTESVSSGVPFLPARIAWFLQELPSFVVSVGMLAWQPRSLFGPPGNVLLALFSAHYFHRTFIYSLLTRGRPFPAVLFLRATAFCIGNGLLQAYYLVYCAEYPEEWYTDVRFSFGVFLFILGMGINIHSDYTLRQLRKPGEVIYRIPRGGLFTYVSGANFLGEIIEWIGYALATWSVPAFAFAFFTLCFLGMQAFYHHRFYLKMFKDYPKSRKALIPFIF
# [7] = target: Carbonic anhydrase 2 (Bos taurus, UniProt P00921)
# [8] = physchem
# [9] = target: T4, Steryl-sulfatase (Homo sapiens, UniProt P08842)
# T4 sequence (P08842 whole entry): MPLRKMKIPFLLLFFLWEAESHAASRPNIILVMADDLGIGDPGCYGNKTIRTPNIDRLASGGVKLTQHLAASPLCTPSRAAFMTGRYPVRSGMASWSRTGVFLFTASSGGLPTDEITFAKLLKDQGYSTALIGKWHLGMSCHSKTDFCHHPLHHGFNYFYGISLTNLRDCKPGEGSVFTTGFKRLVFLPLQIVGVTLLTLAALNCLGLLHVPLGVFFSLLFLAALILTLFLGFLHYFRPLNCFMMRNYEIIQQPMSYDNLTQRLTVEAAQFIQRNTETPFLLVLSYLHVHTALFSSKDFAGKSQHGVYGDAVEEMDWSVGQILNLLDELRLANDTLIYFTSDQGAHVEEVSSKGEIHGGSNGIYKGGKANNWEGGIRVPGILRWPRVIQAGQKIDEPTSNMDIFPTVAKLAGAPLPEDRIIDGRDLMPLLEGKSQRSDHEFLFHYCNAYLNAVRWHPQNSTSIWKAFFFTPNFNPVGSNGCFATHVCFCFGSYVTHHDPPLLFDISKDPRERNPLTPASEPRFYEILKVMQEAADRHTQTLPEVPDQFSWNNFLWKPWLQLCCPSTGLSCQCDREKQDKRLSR
# [10] = target: T4, Steryl-sulfatase; remark: listed apart in the source
# [11] = target: Trypanothione reductase (Trypanosoma cruzi) (UniProt P28593)
# [12] = in vitro; settings: plasma
# [13] = target: T5, 3-oxo-5-alpha-steroid 4-dehydrogenase 2 (Homo sapiens, UniProt P31213)
# T5 sequence (P31213 whole entry): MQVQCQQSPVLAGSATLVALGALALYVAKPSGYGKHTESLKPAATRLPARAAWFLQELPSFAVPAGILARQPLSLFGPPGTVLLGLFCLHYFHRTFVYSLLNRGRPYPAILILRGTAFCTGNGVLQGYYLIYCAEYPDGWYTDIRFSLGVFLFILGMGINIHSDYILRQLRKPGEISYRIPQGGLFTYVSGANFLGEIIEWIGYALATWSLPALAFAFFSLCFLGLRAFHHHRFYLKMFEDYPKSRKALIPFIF
# [14] = test system: T47D; assay: cells; type: functional, cell-based; settings: Homo sapiens
# [15] = target: NS3 protease (Hepacivirus C, UniProt C1KIQ2); parameters: species or system Hepacivirus hominis
# [16] = target: Peptidyl-prolyl cis-trans isomerase FKBP1A (Homo sapiens, UniProt P62942); assay: biochemical; type: cell-based
# [17] = target: T5, 3-oxo-5-alpha-steroid 4-dehydrogenase 2; type: cell-based, HEK293
# [18] = target: T1, 3-oxo-5-alpha-steroid 4-dehydrogenase 1; type: cell-based, HEK293
# [19] = target: T6, Parathyroid hormone/parathyroid hormone-related peptide receptor (Homo sapiens, UniProt Q03431)
# T6 sequence (Q03431 whole entry): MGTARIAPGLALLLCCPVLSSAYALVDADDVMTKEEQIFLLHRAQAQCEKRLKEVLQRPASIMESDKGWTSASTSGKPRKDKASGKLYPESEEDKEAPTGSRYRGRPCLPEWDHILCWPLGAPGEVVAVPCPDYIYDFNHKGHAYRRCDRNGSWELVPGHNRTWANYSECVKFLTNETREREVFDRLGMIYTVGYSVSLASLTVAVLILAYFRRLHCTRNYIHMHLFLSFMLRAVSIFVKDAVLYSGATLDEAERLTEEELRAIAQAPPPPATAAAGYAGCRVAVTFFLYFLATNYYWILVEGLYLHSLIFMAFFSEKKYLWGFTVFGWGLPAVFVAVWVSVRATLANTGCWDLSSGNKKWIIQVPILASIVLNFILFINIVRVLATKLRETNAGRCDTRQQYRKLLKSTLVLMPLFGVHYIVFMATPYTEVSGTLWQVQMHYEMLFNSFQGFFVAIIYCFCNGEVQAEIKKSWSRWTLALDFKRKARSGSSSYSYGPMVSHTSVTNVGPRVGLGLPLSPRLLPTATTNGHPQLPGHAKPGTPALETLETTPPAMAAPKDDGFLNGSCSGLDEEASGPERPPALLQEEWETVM
# [20] = target: T6, Parathyroid hormone/parathyroid hormone-related peptide receptor; assay: biochemical
# Chain of NS3 protease (C1KIQ2 whole entry): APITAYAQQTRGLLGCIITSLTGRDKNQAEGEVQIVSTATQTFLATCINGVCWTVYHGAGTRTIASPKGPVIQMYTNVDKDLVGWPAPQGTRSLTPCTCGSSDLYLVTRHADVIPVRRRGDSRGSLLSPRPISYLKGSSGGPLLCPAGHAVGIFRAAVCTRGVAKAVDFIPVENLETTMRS
# Chain of Carbonic anhydrase 2 (P00921 whole entry): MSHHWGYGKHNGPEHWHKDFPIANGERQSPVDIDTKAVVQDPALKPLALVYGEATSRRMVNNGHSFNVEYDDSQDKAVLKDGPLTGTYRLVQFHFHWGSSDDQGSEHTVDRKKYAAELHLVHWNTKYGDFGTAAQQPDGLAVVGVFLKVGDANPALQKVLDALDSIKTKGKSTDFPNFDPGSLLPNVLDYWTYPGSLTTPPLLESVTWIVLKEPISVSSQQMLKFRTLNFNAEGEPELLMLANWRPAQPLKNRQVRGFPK
# Chain of Delta-type opioid receptor (P41143 whole entry): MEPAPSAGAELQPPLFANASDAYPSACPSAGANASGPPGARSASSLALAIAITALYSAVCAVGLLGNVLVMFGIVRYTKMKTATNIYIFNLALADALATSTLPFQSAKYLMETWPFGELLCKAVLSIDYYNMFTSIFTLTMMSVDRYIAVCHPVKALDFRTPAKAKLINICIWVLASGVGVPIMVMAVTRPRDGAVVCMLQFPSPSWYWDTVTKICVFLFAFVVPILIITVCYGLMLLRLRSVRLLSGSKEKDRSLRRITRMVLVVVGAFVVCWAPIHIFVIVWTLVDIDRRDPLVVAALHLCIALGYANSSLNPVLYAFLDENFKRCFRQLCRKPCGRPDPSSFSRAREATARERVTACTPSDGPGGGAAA
# Chain of Trypanothione reductase (Trypanosoma cruzi) (P28593 whole entry, looked up): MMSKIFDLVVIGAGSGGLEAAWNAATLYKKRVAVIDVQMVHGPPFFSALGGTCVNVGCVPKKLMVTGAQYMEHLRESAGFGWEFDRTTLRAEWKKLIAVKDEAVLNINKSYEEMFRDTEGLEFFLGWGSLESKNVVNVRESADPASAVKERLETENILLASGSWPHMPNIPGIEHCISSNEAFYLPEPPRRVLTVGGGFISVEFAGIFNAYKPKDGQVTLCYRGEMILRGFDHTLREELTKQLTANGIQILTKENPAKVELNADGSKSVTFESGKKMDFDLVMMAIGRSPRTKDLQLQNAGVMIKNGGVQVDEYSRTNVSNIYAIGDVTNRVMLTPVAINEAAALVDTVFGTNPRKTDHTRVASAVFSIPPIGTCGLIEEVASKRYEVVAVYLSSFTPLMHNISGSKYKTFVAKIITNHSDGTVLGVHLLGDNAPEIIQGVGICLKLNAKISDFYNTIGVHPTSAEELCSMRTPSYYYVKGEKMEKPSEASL
# Chain of Peptidyl-prolyl cis-trans isomerase FKBP1A (P62942 whole entry): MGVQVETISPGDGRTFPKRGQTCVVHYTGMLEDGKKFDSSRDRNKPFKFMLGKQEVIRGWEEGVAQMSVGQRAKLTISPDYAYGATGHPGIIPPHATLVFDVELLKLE
structure (smiles),measurement,setting,value
CC(C)C[C@H](NC(=O)[C@@H](/C=C/CNC(=O)CNC(=O)[C@@H](N)Cc1ccc(O)cc1)Cc1ccccc1)C(=O)O,Ki,[1],587 nM
same,logD,[2],-0.07
C[C@]12C=CC(=O)N[C@@H]1CC[C@@H]1[C@@H]2CC[C@]2(C)[C@@H](C(=O)NC(c3ccccc3)(C(F)(F)F)C(F)(F)F)CC[C@@H]12,IC50,[3],3.9 nM
same,IC50,[4],20 nM
same,IC50,[5],34 nM
same,IC50,[6],34 nM
NS(=O)(=O)C(F)(F)c1ccccc1 [PHENYLDIFLUOROMETHANESULFONAMIDE],IC50,[7],58 nM
same,pKa,[8],7.7
C[C@]12CC[C@@H]3c4ccc(C(F)(F)S(=O)(=O)O)cc4CC[C@H]3[C@@H]1CCC2=O,Ki,[9],73 µM
same,Ki,[10],147 µM
C[N+](C)(CCCNc1cc(F)ccc1Nc1ccc(C(F)(F)F)cc1)Cc1ccc(Cl)c(Cl)c1,Kic,[11],24 µM
Cc1cn2c(C(=O)NCc3ccc(C(F)(F)F)cc3)c(C)nc2s1,fraction unbound,[12],0.009
C[C@]12CC[C@@H]3c4ccc(C(F)(F)S(N)(=O)=O)cc4CC[C@H]3[C@@H]1CCC2=O,Ki,[9],82 µM
same,Ki,[10],28 µM
C[C@]12C=CC(=O)N[C@@H]1CC[C@@H]1[C@@H]2CC[C@]2(C)[C@@H](C(=O)Nc3cc(C(F)(F)F)ccc3C(F)(F)F)CC[C@@H]12 [DUTASTERIDE],IC50,[3],4 nM
same,IC50,[13],< 0.1 nM
CC(C)(C)c1ccc(Nc2ccc(F)cc2NCCC[N+](C)(C)Cc2ccc(Cl)c(Cl)c2)cc1,Kic,[11],84 µM
C[N+](C)(CCCNc1cc(F)ccc1Nc1ccc(S(F)(F)(F)(F)F)cc1)Cc1ccc(Cl)c(Cl)c1,Kic,[11],28 µM
CC(NC(=O)[C@H]1CC[C@H]2[C@@H]3CC[C@H]4NC(=O)C=C[C@]4(C)[C@H]3CC[C@]12C)(c1ccccc1)C(F)(F)F (some centres not stated),IC50,[3],36 nM
same,IC50,[4],16 nM
same,IC50,[5],15 nM
same,IC50,[6],15 nM
CC(C)C[C@H](NC(=O)[C@H](Cc1ccccc1)OC(=O)CNC(=O)CNC(=O)[C@@H](N)Cc1ccc(O)cc1)C(=O)O (H-YGG[PhLac]L-OH),Ki,[1],34 nM
CC(C)C[C@H](NC(=O)[C@H](Cc1ccccc1)NC(=S)CNC(=O)CNC(=O)[C@@H](N)Cc1ccc(O)cc1)C(=O)O,Ki,[1],47 nM
NS(=O)(=O)Cc1ccccc1 [PHENYLMETHANESULFONAMIDE],IC50,[7],630 nM
same,pKa,[8],10.5
NS(=O)(=O)C(F)c1ccccc1 (configuration not stated),IC50,[7],220 nM
same,pKa,[8],8.8
O=C1Nc2ccc(S(F)(F)(F)(F)F)cc2/C1=C/c1ccc[nH]1,EC50,[14],490 nM
CC(=O)N[C@@H](CC(=O)O)C(=O)N[C@@H](CCC(=O)O)C(=O)N[C@H](C(=O)N[C@@H](CCC(=O)O)C(=O)N[C@@H](CC1CCCCC1)C(=O)N[C@@H](CS)C(=O)O)C(c1ccccc1)c1ccccc1 (Ac-DE[Dip]E[Cha]C-OH),Ki,[15],40 nM
COc1cc(C(=O)C(=O)N2CCC[C@H]2C(=O)OCCCc2cccnc2)cc(OC)c1OC,Ki,[16],4 µM
CC(C)C[C@H](NC(=O)[C@@H](/C=C(\F)CNC(=O)CNC(=O)[C@@H](N)Cc1ccc(O)cc1)Cc1ccccc1)C(=O)O,Ki,[1],43 nM
same,logD,[2],-0.11
Cc1cn2c(C(=O)NCc3ccc(S(F)(F)(F)(F)F)cc3)c(C)nc2s1,fraction unbound,[12],0.003
CC[C@H](NC(=O)[C@H](CC1CCCCC1)NC(=O)[C@H](CCC(=O)O)NC(=O)[C@@H](NC(=O)[C@H](CCC(=O)O)NC(=O)[C@H](CC(=O)O)NC(C)=O)C(c1ccccc1)c1ccccc1)C(=O)O (Ac-DE[Dip]E[Cha][Abu]-OH),Ki,[15],700 nM
O=C1Nc2cc(S(F)(F)(F)(F)F)ccc2/C1=C/c1ccc[nH]1,EC50,[14],350 nM
"CC(=O)N[C@@H](CC(=O)O)C(=O)N[C@@H](CCC(=O)O)C(=O)N[C@H](C(=O)N[C@@H](CCC(=O)O)C(=O)N[C@@H](CC1CCCCC1)C(=O)N[C@@H](CC(F)F)C(=O)O)C(c1ccccc1)c1ccccc1 (Ac-DE[Dip]E[Cha][Abu(4,4-F2)]-OH)",Ki,[15],30 nM
CC(C)(C)NC(=O)[C@H]1CC[C@H]2[C@@H]3CC=C4C=C(F)CC[C@]4(C)[C@H]3CC[C@]12C,IC50,[17],480 nM
same,IC50,[18],1300 nM
CC[C@H](C)[C@H](NC(=O)[C@H](CCC(=O)O)NC(=O)[C@H](CO)NC(=O)[C@H](C)/C=C(\F)[C@H](C)N)C(=O)N[C@@H](CCC(N)=O)C(=O)N[C@@H](CC(C)C)C(=O)N[C@@H](CCSC)C(=O)N[C@@H](Cc1c[nH]cn1)C(=O)N[C@@H](CC(N)=O)C(=O)N[C@@H](CC(C)C)C(=O)NCC(=O)N[C@@H](CCCCN)C(=O)N[C@@H](Cc1c[nH]cn1)C(=O)N[C@@H](CC(C)C)C(=O)N[C@@H](CC(N)=O)C(=O)N[C@@H](CO)C(=O)N[C@@H](CCSC)C(=O)N[C@@H](CCC(=O)O)C(=O)N[C@@H](CCCN=C(N)N)C(=O)N[C@H](C(=O)N[C@@H](CCC(=O)O)C(=O)N[C@@H](Cc1c[nH]c2ccccc12)C(=O)N[C@@H](CC(C)C)C(=O)N[C@@H](CCCN=C(N)N)C(=O)N[C@@H](CCCCN)C(=O)N[C@@H](CCCCN)C(=O)N[C@@H](CC(C)C)C(=O)N[C@@H](CCC(N)=O)C(=O)N[C@@H](CC(=O)O)C(=O)N[C@H](C(=O)N[C@@H](Cc1c[nH]cn1)C(=O)N[C@@H](CC(N)=O)C(=O)N[C@@H](Cc1ccccc1)C(=O)N[C@H](C(=O)N[C@@H](C)C(N)=O)C(C)C)C(C)C)C(C)C (X2-SEIQLMHNLGKHLNSMERVEWLRKKLQDVHNFVA-NH2),EC50,[19],9.1 nM
same,Kd,[20],6.31 nM
C[C@]12CC[C@@H]3c4ccc(CS(N)(=O)=O)cc4CC[C@H]3[C@@H]1CCC2=O,Ki,[9],350 µM
